We go through 2 compounds from patent US10821079B2, “PKC activators and combinations thereof” (Cognitive Research Enterprises, Inc., priority 2011, dated 2020).

For data set [1], the system named is rat hippocampal primary neurons. Nature of the data set: Synaptic marker immunofluorescence in rat hippocampal primary neurons. The note with it: 50 nM ASPD alone (ASPD) or with 100 nM DCPLA-ME, 20 hr. The class given is cell-based. As to the method: Cells were grown in two chambered slides (Nunc, USA) at low density. For immunofluorescence staining, the cells were washed with PBS (pH 7.4) and fixed with 4% paraformaldehyde for 4 min. Following fixation, the cells were blocked and permeabilized with 5% serum and 0.3% Triton X 100 in 1×PBS for 30 min. The cells were washed three times with 1×PBS and incubated with primary antibodies for 1 hr at 1:100 dilution. The incubation slides were then washed again three times in 1×PBS and were incubated with the FITC anti-rabbit IgG and Rhodamine anti-mouse IgG for 1 hr at 1:400 dilution. The cells were further washed and treated with DAPI (4′,6-diamidino-2′-phenylindole, dihydrochloride) (Thermo Scientific, USA) to stain the nucleus. Finally, the slides were washed and mounted in Pro Long Gold antifade mounting solution (Invitrogen, USA) and were viewed under the LSM 710 Meta confocal microscope (Zeiss) at 350 nm, 490 nm, and 540 nm excitation and 470 nm, 525 nm, and 625 nm emission for DAPI, FITC, and Rhodamine respectively. Six individual fields at 63× oil lens magnification were analyzed for the mean fluorescence intensity (MFI) in each channel. The co-localization correlation generated by the ZEN software (Zeiss).
To estimate the synaptic damage caused by the ASPDs on primary hippocampal neurons, the expression of synaptophysin (a presynaptic marker) and PSD-95 (a postsynaptic marker) was measured by immunofluorescence staining. […] Following a 20 hr incubation period, the cells were stained for nucleus, PSD-95, and synaptophysin. Expression levels were calculated as the change of percentage in mean fluorescence intensity compared to untreated cells.
Primary neurons, treated and untreated, were immunostained for MAP-2, synaptophysin, and PSD-95 to determine the synaptic integrity. […] Following a 20 hr incubation period, the cells were stained for MAP-2, PSD-95, and synaptophysin as described above.

The next data set deals with GSK-3β. Nature of the data set: Phospho GSK-3β (Ser-9) Western Blot in ASPD treated primary neurons. In kind it is cell-based, rat. The note with it: 50 nM ASPD + 100 nM DCPLA-ME. From the text: Phospho GSK-3β expression was normalized against total GSK-3β expression. […] Data are represented as mean±SEM. (Student's t test *. p<0.05; and **, p<0.005 n=3).
Since GSK-3β is a key enzyme in the production of hyperphosphorylated tau protein, and phosphorylation of the Ser-9 residue causes GSK-3β inhibition, increasing phosphorylation of GSK-3β at Ser-9 by PKC could also enhance the protective effect of DCPLA-ME.

The subject of a further data set is rat hippocampal neurons. Nature of the data set: Differentiation of seven day old rat hippocampal neurons. In kind it is cell-based. The note with it: RA 10 μM, bryostatin 1 0.27 nM, DCPLA-ME 100 nM. Here is the method:
FIG. 27: PKC-ε specific activation induces maturation and differentiation in rat primary neurons. Seven day old culture of rat hippocampal neurons were treated with RA (10 μM), 0.27 nM bryostatin 1(Bry), RA+bryostatin 1(RA+Bry), DCPLA-ME (100 nM) or RA+DCPLA-ME for 48 h. FIG. 27A—Confocal micrographs showing rat hippocampal neurons stained for MAP-2 (green), synaptophysin (red), and DAPI (blue). FIG. 27B—Graphical representation of number of dendritic branches per neuron. PKCε activation by RA+bryostatin 1(RA+Bry), DCPLA-ME or RA+DCPLA-ME increase the dendritic branching by 2-fold. FIG. 27C—Mean fluorescence intensity for MAP-2 or synaptophysin calculated from eight random 225 μm2 of confocal images. Data are represented as mean±SE. * represents significance with respect to control (* p<0.05, ** p<0.005 and *** p<0.0005).
Dendritic branching was increased in the cells treated with RA and a PKC activator, as evidenced by the MAP-2 staining. Similarly, the synaptic vesicle pool increased was also seen by increased synaptophysin.
The effect of RA+bryostatin 1 on development of primary neurons was also investigated. Seven day old rat hippocampal neurons were treated with RA, bryostatin 1, RA+bryostatin 1, DCPLA-methyl ester (“DCPLA-ME”) or RA+DCPLA-ME for 48 hr. RA+bryostatin produced a greater increase of MAP2 and synaptophysin than RA or bryostatin alone (FIGS. 27A & C).

For data set [2] the following is noted: rats; cited from earlier work.

For `CCCCCC1CC1CC1CC1CCCCCCCC(=O)OC` (stereo not shown) [DCPLA-ME, methyl 8-(2-((2-pentylcyclopropyl)methyl)cyclopropyl)octanoate], in data set [1], the “MAP-2 expression (mean fluorescence intensity)” value was found to be 68.87±2.0%, the “PSD-95 expression (mean fluorescence intensity)” value is 99.2±11.3% and the “synaptophysin expression (mean fluorescence intensity)” value was 87.48±3.75%. Also, the “phosphorylation of Ser-9 of GSK-3β (in words)” value with GSK-3β is “restored phosphorylation of the Ser-9 residue of GSK-3β to normal levels”. In addition, in the data set with rat hippocampal neurons (48 h), the “increase of dendritic branching” value amounted to 2 fold. For the same compound, the “Fractal dimension (dendritic branching)” value with rat hippocampal neurons (48 hr) was 1.40±0.03.
As for `CCC/C=C/C=C/C(=O)O[C@H]1/C(=C/C(=O)OC)C[C@H]2C[C@H]([C@@H](C)O)OC(=O)C[C@H](O)C[C@@H]3C[C@H](OC(C)=O)C(C)(C)C(O)(C[C@@H]4C/C(=C/C(=O)OC)C[C@H](/C=C/C(C)(C)[C@]1(O)O2)O4)O3` [Bryostatin-1], the “acute LD50” value in data set [2] was 0.068 mg/kg.
